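Results reflect a 48-hour exposure of cells in 96-well plates to compound at five concentrations. Definition used: TGI = concentration required for complete inhibition of growth.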
Each compound was assayed on HS 578T breast (assay: NCI tumour cell line growth inhibition, 48 h).

Q: How did the TGI turn out when `CCCC(=O)N1CCN(c2ccc3c(c2)OC(C)O3)CC1` (configuration not stated) was run?
A: Its TGI is over 100 µM.

Q: With `COC(=O)C1=C(O)c2ccc(Cl)cc2S(=O)(=O)N1C` as the compound, how does the TGI read?
A: Its TGI is over 100 µM.

Q: Which TGI does the source give for `C=C(Nc1nc2ccc(C)cc2s1)C(=O)C(CC)C(=O)C(CC)CC1C(=O)NC(=O)NC1=O` (configuration not stated) here?
A: The TGI was over 100 µM.

Q: Which TGI does the source give for `CCOC(=O)[C@H](C)OC(=O)[C@@](C)(NC(=O)c1ccccc1C(=O)OC)[C@@H]1NC=C(C(=O)OC)CS1` here?
A: The TGI was over 100 µM.

Q: Which TGI does the source give for `Cn1c2ccccc2c(=O)c2cccc(C(=O)NC(CS)C(=O)O)c21` (configuration not stated) here?
A: Its TGI is over 100 µM.

Q: With `COc1ccc(N=NC(=O)NC(CC(C)C)C(=O)NC(C)C(=O)O)cc1` (configuration not stated) as the compound, how does the TGI read?
A: Its TGI is over 100 µM.

Q: For `CC(=O)OCC1OC(n2c(C)cc(C)c(C#N)c2=S)C(OC(C)=O)C(OC(C)=O)C1OC(C)=O` (configuration not stated), which TGI is on record?
A: The TGI was over 100 µM.

Q: With `COC(=O)NC(C(F)(F)F)(C(F)(F)F)P1(=O)OCCCO1` as the compound, how does the TGI read?
A: The TGI was over 100 µM.

Q: `CCOC(=O)NNC(=O)NCCCCNC(=O)NNC(=O)OCC` was tested. Which TGI did it give?
A: The TGI was over 100 µM.

Q: With `COC(=O)c1nsc(OC)c1Cl` as the compound, how does the TGI read?
A: The TGI was over 100 µM.

Q: For `Cc1c2cccc-2c(OCCO)cc2c3ccccc3n(C)c12`, which TGI is on record?
A: The TGI was 7.15 µM.

Q: How did the TGI turn out when `c1ccc2c(c1)SCCC2NC1=NCCO1` (configuration not stated) was run?
A: Its TGI is over 100 µM.

Q: `C=CCN(C(=O)CNC(=O)C(F)(F)F)c1cc(OCc2ccccc2)c2c(c1)c(C)cn2S(=O)(=O)c1ccccc1` was tested. Which TGI did it give?
A: Its TGI is over 100 µM.

Q: Which TGI does the source give for `COC1=C(Br)[C@H](O)[C@@]2(C=C1Br)CC(C(=O)NCCCOc1c(Br)cc(C(O)CNC(C)=O)cc1Br)=NO2` (some centres not stated) here?
A: Its TGI is over 10 µM.

Q: `COc1ccc(C[C@H]2COC(=O)[C@@H]2Cc2cccc(Br)c2)cc1OC` was tested. Which TGI did it give?
A: Its TGI is over 100 µM.

Q: With `CSc1ccsc1-c1sc(-c2cc(SC)c(-c3sc(-c4cc(SC)c(-c5sccc5SC)s4)cc3SC)s2)cc1SC` as the compound, how does the TGI read?
A: The TGI was over 100 µM.

Q: For `COc1cccc(C2c3cc4c(cc3OC(C)(N3CCCC3)C2C)OCO4)c1` (configuration not stated), which TGI is on record?
A: The TGI was 19.9 µM.

Q: `CCSC1=N/C(=C\c2ccc(N(C)C)cc2)C(Cl)=N1` was tested. Which TGI did it give?
A: Its TGI is over 100 µM.

Q: For `COC1(OC)CCCc2c1no[n+]2[O-]`, which TGI is on record?
A: Its TGI is over 100 µM.

Q: `CC1=C(/C=C/C(C)=C/C=C/C(C)=C/C(=O)OC2CC(n3cc(F)c(=O)[nH]c3=O)OC2CO)C(C)(C)CCC1` (configuration not stated) was tested. Which TGI did it give?
A: Its TGI is over 56 µM.

Q: How did the TGI turn out when `CC(C)C(C/C=C1\CC(CO)(COC(=O)C(C)(C)C)OC1=O)C(C)C` (configuration not stated) was run?
A: Its TGI is 11.8 µM.

Q: `O=C1C=C(NCCOCCO)C(=O)c2c(O)ccc(O)c21` was tested. Which TGI did it give?
A: The TGI was over 100 µM.

Q: For `CC(C)[Si]1(C(C)C)OCC2OC3(CO)C(Oc4nc(=O)ccn43)C2O[Si](C(C)C)(C(C)C)O1` (configuration not stated), which TGI is on record?
A: The TGI was 45.9 µM.

These compounds were tested on SF-539 CNS (assay: NCI tumour cell line growth inhibition, 48 h).

Q: For `Cn1c2c(c3ccccc31)CCN1C(=O)CN(C(=O)C3CCCCC3)CC21` (configuration not stated), which TGI is on record?
A: The TGI was over 100 µM.

Q: `CCOC(=O)c1nc2cc(F)c(N3CCOCC3)cc2[nH]c1=O` was tested. Which TGI did it give?
A: The TGI was over 100 µM.

Q: For `CCCC(=O)N1CCN(c2ccc3c(c2)OC(C)O3)CC1` (configuration not stated), which TGI is on record?
A: Its TGI is over 100 µM.

Q: `C=C(Nc1nc2ccc(C)cc2s1)C(=O)C(CC)C(=O)C(CC)CC1C(=O)NC(=O)NC1=O` (configuration not stated) was tested. Which TGI did it give?
A: Its TGI is over 100 µM.

Q: `Cn1c2ccccc2c(=O)c2cccc(C(=O)NC(CS)C(=O)O)c21` (configuration not stated) was tested. Which TGI did it give?
A: Its TGI is over 100 µM.

Q: With `COc1ccc(N=NC(=O)NC(CC(C)C)C(=O)NC(C)C(=O)O)cc1` (configuration not stated) as the compound, how does the TGI read?
A: The TGI was 14.4 µM.

Q: How did the TGI turn out when `CC(=O)OCC1OC(n2c(C)cc(C)c(C#N)c2=S)C(OC(C)=O)C(OC(C)=O)C1OC(C)=O` (configuration not stated) was run?
A: The TGI was over 100 µM.

Q: Which TGI does the source give for `COC(=O)NC(C(F)(F)F)(C(F)(F)F)P1(=O)OCCCO1` here?
A: The TGI was 43 µM.

Q: How did the TGI turn out when `CCOC(=O)NNC(=O)NCCCCNC(=O)NNC(=O)OCC` was run?
A: Its TGI is over 100 µM.

Q: For `COC(=O)c1nsc(OC)c1Cl`, which TGI is on record?
A: The TGI was over 100 µM.

Q: With `Cc1c2cccc-2c(OCCO)cc2c3ccccc3n(C)c12` as the compound, how does the TGI read?
A: Its TGI is 5.92 µM.

Q: With `c1ccc2c(c1)SCCC2NC1=NCCO1` (configuration not stated) as the compound, how does the TGI read?
A: The TGI was over 100 µM.

Q: For `C=CCN(C(=O)CNC(=O)C(F)(F)F)c1cc(OCc2ccccc2)c2c(c1)c(C)cn2S(=O)(=O)c1ccccc1`, which TGI is on record?
A: The TGI was over 100 µM.

Q: Which TGI does the source give for `COC1=C(Br)[C@H](O)[C@@]2(C=C1Br)CC(C(=O)NCCCOc1c(Br)cc(C(O)CNC(C)=O)cc1Br)=NO2` (some centres not stated) here?
A: The TGI was over 10 µM.

Q: Which TGI does the source give for `COc1ccc(C[C@H]2COC(=O)[C@@H]2Cc2cccc(Br)c2)cc1OC` here?
A: Its TGI is 41.4 µM.

Q: How did the TGI turn out when `CSc1ccsc1-c1sc(-c2cc(SC)c(-c3sc(-c4cc(SC)c(-c5sccc5SC)s4)cc3SC)s2)cc1SC` was run?
A: The TGI was over 100 µM.

Q: Which TGI does the source give for `COc1cccc(C2c3cc4c(cc3OC(C)(N3CCCC3)C2C)OCO4)c1` (configuration not stated) here?
A: Its TGI is 37.2 µM.

Q: With `COC1(OC)CCCc2c1no[n+]2[O-]` as the compound, how does the TGI read?
A: The TGI was over 100 µM.

Q: For `CC1=C(/C=C/C(C)=C/C=C/C(C)=C/C(=O)OC2CC(n3cc(F)c(=O)[nH]c3=O)OC2CO)C(C)(C)CCC1` (configuration not stated), which TGI is on record?
A: The TGI was 0.54 µM.

Q: For `CC(C)C(C/C=C1\CC(CO)(COC(=O)C(C)(C)C)OC1=O)C(C)C` (configuration not stated), which TGI is on record?
A: The TGI was 20.9 µM.

Q: For `O=C1C=C(NCCOCCO)C(=O)c2c(O)ccc(O)c21`, which TGI is on record?
A: The TGI was 54.6 µM.

Q: With `CC(C)[Si]1(C(C)C)OCC2OC3(CO)C(Oc4nc(=O)ccn43)C2O[Si](C(C)C)(C(C)C)O1` (configuration not stated) as the compound, how does the TGI read?
A: Its TGI is 28.3 µM.

The compounds below were run on 786-0 renal (assay: NCI tumour cell line growth inhibition, 48 h).

Q: With `Cn1c2c(c3ccccc31)CCN1C(=O)CN(C(=O)C3CCCCC3)CC21` (configuration not stated) as the compound, how does the TGI read?
A: The TGI was over 100 µM.

Q: `CCOC(=O)c1nc2cc(F)c(N3CCOCC3)cc2[nH]c1=O` was tested. Which TGI did it give?
A: Its TGI is over 100 µM.

Q: `CCCC(=O)N1CCN(c2ccc3c(c2)OC(C)O3)CC1` (configuration not stated) was tested. Which TGI did it give?
A: The TGI was over 100 µM.

Q: For `COC(=O)C1=C(O)c2ccc(Cl)cc2S(=O)(=O)N1C`, which TGI is on record?
A: Its TGI is over 100 µM.

Q: Which TGI does the source give for `C=C(Nc1nc2ccc(C)cc2s1)C(=O)C(CC)C(=O)C(CC)CC1C(=O)NC(=O)NC1=O` (configuration not stated) here?
A: Its TGI is over 100 µM.

Q: How did the TGI turn out when `CCOC(=O)[C@H](C)OC(=O)[C@@](C)(NC(=O)c1ccccc1C(=O)OC)[C@@H]1NC=C(C(=O)OC)CS1` was run?
A: Its TGI is over 100 µM.

Q: How did the TGI turn out when `Cn1c2ccccc2c(=O)c2cccc(C(=O)NC(CS)C(=O)O)c21` (configuration not stated) was run?
A: Its TGI is over 100 µM.

Q: How did the TGI turn out when `COc1ccc(N=NC(=O)NC(CC(C)C)C(=O)NC(C)C(=O)O)cc1` (configuration not stated) was run?
A: Its TGI is over 100 µM.

Q: With `CC(=O)OCC1OC(n2c(C)cc(C)c(C#N)c2=S)C(OC(C)=O)C(OC(C)=O)C1OC(C)=O` (configuration not stated) as the compound, how does the TGI read?
A: Its TGI is over 100 µM.

Q: With `COC(=O)NC(C(F)(F)F)(C(F)(F)F)P1(=O)OCCCO1` as the compound, how does the TGI read?
A: Its TGI is over 100 µM.

Q: With `CCOC(=O)NNC(=O)NCCCCNC(=O)NNC(=O)OCC` as the compound, how does the TGI read?
A: The TGI was over 100 µM.

Q: Which TGI does the source give for `COC(=O)c1nsc(OC)c1Cl` here?
A: The TGI was over 100 µM.

From PubChem BioAssay (NCI)
